From ChEMBL document CHEMBL1138906, “Development of sulfonamide compounds as potent methionine aminopeptidase type II inhibitors with antiproliferative properties” (Bioorg Med Chem Lett, 2006)

Experiments:
HMEC = assay: cells; details: Homo sapiens
Description: Antiproliferative activity against HMVEC

[1] = Protein binding in rat plasma at 10 uM at pH 7.4; type: ADME, cell-free; details: read-out: PPB (converted)
[2] = target: T1, Methionine aminopeptidase 2 (Homo sapiens, UniProt P50579); assay: Inhibition of MetAP2
[3] = target: T1, Methionine aminopeptidase 2; assay: Inhibition of MetAP2 in presence of 40 mg/ml human serum albumin
[4] = target: Methionine aminopeptidase 1 (Homo sapiens, UniProt P53582); assay: Inhibition of MetAP1
[5] = target: Methionine aminopeptidase (Pyrococcus furiosus (strain ATCC 43587 / DSM 3638 / JCM 8422 / Vc1), UniProt P56218); assay: Inhibition of Pyrococcus furiosus MetAP
[6] = Inhibition of AP; design: species or system Homo sapiens
Xaa-Pro aminopeptidase 1 = Xaa-Pro aminopeptidase 1 (Homo sapiens, UniProt Q9NQW7); assay: Inhibition of AP1
Aminopeptidase N = Aminopeptidase N (Homo sapiens, UniProt P15144); assay: Inhibition of AP-M
Chain of Aminopeptidase N (P15144 whole entry): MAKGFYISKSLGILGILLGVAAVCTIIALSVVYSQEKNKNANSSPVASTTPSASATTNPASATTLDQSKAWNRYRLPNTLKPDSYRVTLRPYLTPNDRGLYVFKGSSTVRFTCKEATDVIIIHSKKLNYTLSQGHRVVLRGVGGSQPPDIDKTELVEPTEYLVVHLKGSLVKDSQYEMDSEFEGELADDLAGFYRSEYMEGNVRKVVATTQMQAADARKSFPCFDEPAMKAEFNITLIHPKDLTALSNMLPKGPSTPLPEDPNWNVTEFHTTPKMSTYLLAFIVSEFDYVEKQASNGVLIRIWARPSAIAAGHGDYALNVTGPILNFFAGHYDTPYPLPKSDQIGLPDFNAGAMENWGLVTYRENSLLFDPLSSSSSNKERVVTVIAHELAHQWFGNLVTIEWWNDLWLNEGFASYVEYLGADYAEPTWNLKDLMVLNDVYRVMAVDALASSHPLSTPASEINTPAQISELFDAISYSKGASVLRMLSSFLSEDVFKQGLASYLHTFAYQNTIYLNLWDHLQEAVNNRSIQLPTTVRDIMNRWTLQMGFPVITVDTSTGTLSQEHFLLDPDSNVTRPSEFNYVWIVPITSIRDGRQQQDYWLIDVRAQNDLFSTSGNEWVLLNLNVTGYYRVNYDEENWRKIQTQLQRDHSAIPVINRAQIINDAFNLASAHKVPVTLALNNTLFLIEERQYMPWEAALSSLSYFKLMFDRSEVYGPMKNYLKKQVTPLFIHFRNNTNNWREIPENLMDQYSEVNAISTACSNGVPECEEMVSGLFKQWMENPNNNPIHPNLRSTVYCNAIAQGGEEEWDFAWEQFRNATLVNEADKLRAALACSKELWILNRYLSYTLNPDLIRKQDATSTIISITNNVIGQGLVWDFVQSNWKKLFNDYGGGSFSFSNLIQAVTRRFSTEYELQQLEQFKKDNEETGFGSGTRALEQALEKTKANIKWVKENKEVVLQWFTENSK

T1 sequence (P50579 whole entry): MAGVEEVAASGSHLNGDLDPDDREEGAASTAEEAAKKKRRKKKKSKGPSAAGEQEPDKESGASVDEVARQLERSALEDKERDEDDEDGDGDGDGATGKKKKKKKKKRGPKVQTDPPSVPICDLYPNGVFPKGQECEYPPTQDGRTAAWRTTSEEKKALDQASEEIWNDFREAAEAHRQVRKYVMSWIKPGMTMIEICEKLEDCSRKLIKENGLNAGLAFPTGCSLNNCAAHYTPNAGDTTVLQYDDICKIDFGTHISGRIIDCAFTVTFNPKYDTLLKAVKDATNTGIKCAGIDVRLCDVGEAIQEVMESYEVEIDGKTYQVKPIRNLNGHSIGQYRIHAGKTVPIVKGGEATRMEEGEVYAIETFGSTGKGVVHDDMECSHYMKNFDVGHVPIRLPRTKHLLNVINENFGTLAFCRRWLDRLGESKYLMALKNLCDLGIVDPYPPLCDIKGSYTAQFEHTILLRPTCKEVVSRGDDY
Chain of Xaa-Pro aminopeptidase 1 (Q9NQW7 whole entry): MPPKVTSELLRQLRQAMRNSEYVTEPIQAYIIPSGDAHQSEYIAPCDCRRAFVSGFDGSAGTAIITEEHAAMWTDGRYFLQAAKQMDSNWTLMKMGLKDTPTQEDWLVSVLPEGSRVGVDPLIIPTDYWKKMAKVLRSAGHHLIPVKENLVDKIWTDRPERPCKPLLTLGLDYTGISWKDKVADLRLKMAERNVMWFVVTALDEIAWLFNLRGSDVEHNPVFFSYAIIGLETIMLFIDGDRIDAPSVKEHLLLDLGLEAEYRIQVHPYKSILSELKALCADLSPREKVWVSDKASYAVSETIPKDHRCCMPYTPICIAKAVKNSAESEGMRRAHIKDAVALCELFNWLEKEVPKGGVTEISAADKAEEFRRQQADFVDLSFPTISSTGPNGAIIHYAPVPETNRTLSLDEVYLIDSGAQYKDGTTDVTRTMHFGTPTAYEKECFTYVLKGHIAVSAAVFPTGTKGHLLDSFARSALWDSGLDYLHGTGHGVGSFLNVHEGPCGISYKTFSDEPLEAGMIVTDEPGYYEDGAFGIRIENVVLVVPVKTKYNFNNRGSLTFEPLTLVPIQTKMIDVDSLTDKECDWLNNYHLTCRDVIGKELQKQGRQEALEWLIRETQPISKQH
Chain of Methionine aminopeptidase (P56218 whole entry): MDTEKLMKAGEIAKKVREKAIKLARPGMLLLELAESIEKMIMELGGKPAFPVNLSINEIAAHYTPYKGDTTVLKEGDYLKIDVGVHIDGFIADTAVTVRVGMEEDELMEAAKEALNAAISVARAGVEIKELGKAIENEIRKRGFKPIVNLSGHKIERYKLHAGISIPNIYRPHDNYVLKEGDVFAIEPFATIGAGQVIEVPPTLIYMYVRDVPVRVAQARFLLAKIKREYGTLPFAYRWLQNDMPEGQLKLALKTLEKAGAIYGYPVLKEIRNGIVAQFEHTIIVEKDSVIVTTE

Structure (SMILES) | IC50 (HMEC) [nM] | fraction unbound at 10 µM [1] | other results
CCCc1ccc(NS(=O)(=O)c2ccccc2)c(C(=O)O)c1 | 60000 |  | 
O=C(O)c1cc(Br)ccc1NS(=O)(=O)c1ccc(Cl)cc1 | 3000 |  | 
CCc1ccc(NS(=O)(=O)c2ccccc2)c(C(=O)O)c1 | 10000 | 0.002 | 
O=C(O)c1c(NS(=O)(=O)c2ccccc2)ccc2ccccc12 | 500 | 0.002 | IC50 [2]: 19 nM; IC50 [3]: 3.8 µM; IC50 [4]: 47 µM; IC50 [5]: > 100 µM; IC50 [6]: > 100 µM; IC50 (Xaa-Pro aminopeptidase 1): > 100 µM; IC50 (Aminopeptidase N): > 100 µM
O=C(O)c1cc(Br)ccc1NS(=O)(=O)c1cccc2nsnc12 | 2000 |  | IC50 [2]: 3900 nM; IC50 [3]: > 100 µM
CCCCc1ccc(NS(=O)(=O)c2ccccc2)c(C(=O)O)c1 | 100000 |  | 

More lines, main results first:

IC50 (HMEC) [nM] | fraction unbound at 10 µM [1] | Structure (SMILES) | other results
400 |  | Cc1cc(C)c(NS(=O)(=O)c2ccccc2)c(C(=O)O)c1 | 
300 | 0.019 | Cc1ccc(NS(=O)(=O)c2ccc(Cl)cc2)c(C(=O)O)c1 | 
130 |  | C[C@H]1CCCc2ccc(NS(=O)(=O)c3ccc(F)cc3)c(C(=O)O)c21 | 
500 | 0.008 | O=C(O)c1c(NS(=O)(=O)c2ccc(F)cc2)ccc2ccccc12 | 
150 |  | CC1=CCCc2ccc(NS(=O)(=O)c3ccc(F)cc3)c(C(=O)O)c21 | 
100 | 0.003 | Cc1ccc(NS(=O)(=O)c2ccccc2)c(C(=O)O)c1 | 
180 |  | O=C(O)c1c(NS(=O)(=O)c2ccc(F)cc2)ccc2c1CCCC2 | 
